Laboratory results from PubChem BioAssay AID256 (DTP/NCI, 2004).
Several values for one entry are separate records, joined by “and”; a condition that tells them apart may be missing. Equal values may be shown once. Toxic doses and inconclusive results are not listed. Rule for the calls: active = survival T/C of 150% or more; inactive = T/C below 125% in these data.

System: CD2F1 mice, L1210 leukemia ip, survival T/C
Assay: NCI In Vivo Anticancer Drug Screen. Data for tumor model L1210 Leukemia (intraperitoneal) in CD2F1 (CDF1) mice
Conditions: higher = longer survival
In short: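 Activity against a transplanted murine tumor was judged by comparing the compound group with a vehicle group. The outcome in the treated animals was divided by that in the controls.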

[1] = endpoint: mean survival time, dose: 100.0 mg/kg/injection, schedule: Q04DX002 (ip), vehicle: saline with Tween-80
[2] = endpoint: mean survival time, dose: 200.0 mg/kg/injection, schedule: Q04DX002 (ip), vehicle: saline with Tween-80
[3] = endpoint: mean survival time, dose: 100.0 mg/kg/injection, schedule: Q01DX009 (ip), vehicle: saline with Tween-80
[4] = endpoint: mean survival time, dose: 200.0 mg/kg/injection, schedule: Q01DX009 (ip), vehicle: saline with Tween-80
[5] = endpoint: mean survival time, dose: 400.0 mg/kg/injection, schedule: Q01DX009 (ip), vehicle: saline with Tween-80
[6] = endpoint: mean survival time, dose: 100.0 mg/kg/injection, schedule: Q04DX003 (ip), vehicle: saline with Tween-80
[7] = endpoint: mean survival time, dose: 200.0 mg/kg/injection, schedule: Q04DX003 (ip), vehicle: saline with Tween-80
[8] = endpoint: mean survival time, dose: 400.0 mg/kg/injection, schedule: Q04DX003 (ip), vehicle: saline with Tween-80
[9] = endpoint: mean survival time, dose: 50.0 mg/kg/injection, schedule: Q04DX002 (ip), vehicle: saline
[10] = endpoint: mean survival time, dose: 100.0 mg/kg/injection, schedule: Q04DX002 (ip), vehicle: saline
[11] = endpoint: mean survival time, dose: 200.0 mg/kg/injection, schedule: Q04DX002 (ip), vehicle: saline
[12] = endpoint: mean survival time, dose: 50.0 mg/kg/injection, schedule: Q01DX009 (ip), vehicle: saline with Tween-80
[13] = endpoint: mean survival time, dose: 100.0 mg/kg/injection, schedule: Q01DX001 (ip), vehicle: saline with Tween-80
[14] = endpoint: mean survival time, dose: 200.0 mg/kg/injection, schedule: Q01DX001 (ip), vehicle: saline with Tween-80

Measured: T/C

CC1(C)COCN1COCCOCN1COCC1(C)C
inactive: endpoint: mean survival time, dose: 6.25 mg/kg/injection, schedule: Q01DX009 (ip), vehicle: saline 97 % of control and 98 % of control | endpoint: mean survival time, dose: 12.5 mg/kg/injection, schedule: Q01DX009 (ip), vehicle: saline 100 % of control and 101 % of control | endpoint: mean survival time, dose: 25.0 mg/kg/injection, schedule: Q01DX009 (ip), vehicle: saline 105 % of control and 107 % of control | endpoint: mean survival time, dose: 50.0 mg/kg/injection, schedule: Q01DX009 (ip), vehicle: saline 106 % of control and 107 % of control | endpoint: mean survival time, dose: 100.0 mg/kg/injection, schedule: Q01DX009 (ip), vehicle: saline 95 % of control and 105 % of control

O=C(O)CCOc1cc(F)c(Cl)cc1Cl
inactive: [1] 94 % of control | [2] 86 % of control | endpoint: mean survival time, dose: 400.0 mg/kg/injection, schedule: Q04DX002 (ip), vehicle: saline with Tween-80 86 % of control

COc1cccc2c1C(=N)c1c(O)c3c(c(O)c1C2=O)C[C@@](O)(C(C)=O)C[C@@H]3OC1CC(N)C(O)C(C)O1 (stereo partly specified)
inactive: endpoint: mean survival time, dose: 0.5 mg/kg/injection, schedule: Q01DX009 (ip), vehicle: saline 121 % of control and 108 % of control | endpoint: mean survival time, dose: 1.0 mg/kg/injection, schedule: Q01DX009 (ip), vehicle: saline 124 % of control | endpoint: mean survival time, dose: 2.0 mg/kg/injection, schedule: Q01DX009 (ip), vehicle: saline 113 % of control and 122 % of control | endpoint: mean survival time, dose: 4.0 mg/kg/injection, schedule: Q01DX009 (ip), vehicle: saline 114 % of control and 119 % of control | endpoint: mean survival time, dose: 8.0 mg/kg/injection, schedule: Q01DX009 (ip), vehicle: saline 101 % of control

CCOC(=O)NC1CC(OC(=O)c2ccc(C)cc2)C(COC(=O)c2ccc(C)cc2)O1 (stereo unspecified)
inactive: [3] 95 % of control | [4] 92 % of control | [5] 100 % of control

CCCCCCCCCCCCCCCC(=O)NCC[N+](C)(C)C
inactive: endpoint: mean survival time, dose: 75.0 mg/kg/injection, schedule: Q01DX001 (ip), vehicle: saline 107 % of control | endpoint: mean survival time, dose: 150.0 mg/kg/injection, schedule: Q01DX001 (ip), vehicle: saline 104 % of control | endpoint: mean survival time, dose: 300.0 mg/kg/injection, schedule: Q01DX001 (ip), vehicle: saline 104 % of control

O=[N+]([O-])c1ccccc1NCCNCCNc1ccccc1[N+](=O)[O-]
inactive: [6] 113 % of control | [7] 98 % of control | [8] 98 % of control

O=c1ccn2c(n1)OC1CC2OC1COC(c1ccccc1)(c1ccccc1)c1ccccc1 (stereo unspecified)
inactive: endpoint: median survival time, dose: 12.5 mg/kg/injection, schedule: Q01DX005 (ip), vehicle: saline with Tween-80 102 % of control | endpoint: median survival time, dose: 25.0 mg/kg/injection, schedule: Q01DX005 (ip), vehicle: saline with Tween-80 96 % of control | endpoint: median survival time, dose: 50.0 mg/kg/injection, schedule: Q01DX005 (ip), vehicle: saline with Tween-80 95 % of control | endpoint: median survival time, dose: 100.0 mg/kg/injection, schedule: Q01DX005 (ip), vehicle: saline with Tween-80 95 % of control | endpoint: median survival time, dose: 200.0 mg/kg/injection, schedule: Q01DX005 (ip), vehicle: saline with Tween-80 98 % of control

CC(=Nc1ccccc1)c1ccc2ccccc2c1
inactive: [6] 98 % of control | [7] 93 % of control | [8] 97 % of control

C[n+]1c(-c2cccc(OCCOCCOc3cccc(-c4c5cc(N)ccc5c5ccc(N)cc5[n+]4C)c3)c2)c2cc(N)ccc2c2ccc(N)cc21
inactive: endpoint: median survival time, dose: 1.0 mg/kg/injection, schedule: Q01DX009 (ip), vehicle: water 104 % of control | endpoint: median survival time, dose: 2.0 mg/kg/injection, schedule: Q01DX009 (ip), vehicle: saline with Tween-80 101 % of control | endpoint: median survival time, dose: 2.0 mg/kg/injection, schedule: Q01DX009 (ip), vehicle: water 114 % of control and 121 % of control | endpoint: median survival time, dose: 4.0 mg/kg/injection, schedule: Q01DX009 (ip), vehicle: saline with Tween-80 102 % of control | endpoint: median survival time, dose: 4.0 mg/kg/injection, schedule: Q01DX009 (ip), vehicle: water 114 % of control | endpoint: median survival time, dose: 8.0 mg/kg/injection, schedule: Q01DX009 (ip), vehicle: saline with Tween-80 104 % of control | endpoint: median survival time, dose: 8.0 mg/kg/injection, schedule: Q01DX009 (ip), vehicle: water 123 % of control | endpoint: median survival time, dose: 16.0 mg/kg/injection, schedule: Q01DX009 (ip), vehicle: saline with Tween-80 105 % of control | endpoint: median survival time, dose: 32.0 mg/kg/injection, schedule: Q01DX009 (ip), vehicle: saline with Tween-80 102 % of control

Nc1nc(N)n2nnnc2c1[N+](=O)[O-]
inactive: endpoint: mean survival time, dose: 100.0 mg/kg/injection, schedule: Q01DX001 (ip), vehicle: carboxymethylcellulose (CMC) 108 % of control

CCN(CC)S(=O)(=O)c1ccc(-c2cc(Cl)c3cc(S(=O)(=O)F)ccc3n2)cc1
inactive: [3] 107 % of control | [4] 87 % of control | [5] 91 % of control

CC(C)C1OCC(C)(C)C(c2ccccc2)O1 (stereo unspecified)
inactive: [9] 93 % of control | [10] 96 % of control | [11] 110 % of control

Cc1cnc([Se])[nH]c1=O
inactive: endpoint: mean survival time, dose: 25.0 mg/kg/injection, schedule: Q01DX005 (ip), vehicle: water 87 % of control | endpoint: mean survival time, dose: 50.0 mg/kg/injection, schedule: Q01DX005 (ip), vehicle: water 90 % of control

COc1cc(/C=C/C=C/C(=O)N2CCCCC2)ccc1O
inactive: endpoint: mean survival time, dose: 12.5 mg/kg/injection, schedule: Q01DX009 (ip), vehicle: saline with Tween-80 97 % of control | endpoint: mean survival time, dose: 25.0 mg/kg/injection, schedule: Q01DX009 (ip), vehicle: saline with Tween-80 100 % of control | [12] 113 % of control

C=CCS(=O)(=O)Cc1ccc([N+](=O)[O-])cc1
inactive: endpoint: mean survival time, dose: 100.0 mg/kg/injection, schedule: Q04DX002 (ip), vehicle: Klucel (hydroxypropylcellulose) (HPC) 105 % of control | endpoint: mean survival time, dose: 200.0 mg/kg/injection, schedule: Q04DX002 (ip), vehicle: Klucel (hydroxypropylcellulose) (HPC) 94 % of control | endpoint: mean survival time, dose: 400.0 mg/kg/injection, schedule: Q04DX002 (ip), vehicle: Klucel (hydroxypropylcellulose) (HPC) 105 % of control

Cc1cc(=O)[nH]c(=O)[nH]1
inactive: endpoint: mean survival time, dose: 50.0 mg/kg/injection, schedule: Q01DX001 (ip), vehicle: Klucel (hydroxypropylcellulose) (HPC) 95 % of control | endpoint: mean survival time, dose: 50.0 mg/kg/injection, schedule: Q01DX009 (ip), vehicle: Klucel (hydroxypropylcellulose) (HPC) 98 % of control | endpoint: mean survival time, dose: 100.0 mg/kg/injection, schedule: Q01DX001 (ip), vehicle: Klucel (hydroxypropylcellulose) (HPC) 104 % of control | endpoint: mean survival time, dose: 100.0 mg/kg/injection, schedule: Q01DX009 (ip), vehicle: Klucel (hydroxypropylcellulose) (HPC) 98 % of control | endpoint: mean survival time, dose: 200.0 mg/kg/injection, schedule: Q01DX001 (ip), vehicle: Klucel (hydroxypropylcellulose) (HPC) 98 % of control | endpoint: mean survival time, dose: 200.0 mg/kg/injection, schedule: Q01DX009 (ip), vehicle: Klucel (hydroxypropylcellulose) (HPC) 102 % of control

CC(=O)c1cccc2cccc([N+](=O)[O-])c12
inactive: [3] 101 % of control | [6] 102 % of control | [4] 102 % of control | [7] 102 % of control | [5] 102 % of control | [8] 100 % of control

CCCCOc1nc(-c2ccncc2)nc(N(C)C)n1
inactive: endpoint: mean survival time, dose: 16.0 mg/kg/injection, schedule: Q04DX002 (ip), vehicle: saline 92 % of control | endpoint: mean survival time, dose: 31.0 mg/kg/injection, schedule: Q04DX002 (ip), vehicle: saline 92 % of control | endpoint: mean survival time, dose: 63.0 mg/kg/injection, schedule: Q04DX002 (ip), vehicle: saline 100 % of control | endpoint: mean survival time, dose: 100.0 mg/kg/injection, schedule: Q01DX002 (ip), vehicle: saline 100 % of control

CC1CC(C)(C)NC(C)(C(C)CC(C)(C)C)O1 (stereo unspecified)
inactive: [9] 108 % of control | [13] 93 % of control | [10] 104 % of control | [14] 93 % of control | [11] 93 % of control

CC(CN)OS(=O)(=O)O (stereo unspecified)
inactive: [12] 100 % of control | endpoint: mean survival time, dose: 50.0 mg/kg/injection, schedule: Q04DX003 (ip), vehicle: saline 103 % of control | [3] 105 % of control | endpoint: mean survival time, dose: 100.0 mg/kg/injection, schedule: Q04DX003 (ip), vehicle: saline 106 % of control | [4] 101 % of control | endpoint: mean survival time, dose: 200.0 mg/kg/injection, schedule: Q04DX003 (ip), vehicle: saline 97 % of control | [5] 101 % of control | endpoint: mean survival time, dose: 400.0 mg/kg/injection, schedule: Q04DX003 (ip), vehicle: saline 105 % of control

Cc1ccc(C(=O)Nc2cccc(-n3cnc4c(=O)[nH]c(N)nc43)c2)cc1S(=O)(=O)F
inactive: endpoint: mean survival time, dose: 50.0 mg/kg/injection, schedule: Q04DX002 (ip), vehicle: saline with Tween-80 90 % of control | [1] 101 % of control | [2] 86 % of control

NC(=O)/C(=N/O)c1ccccc1
inactive: [6] 104 % of control | [7] 106 % of control | [8] 102 % of control

CC1CC(C)(C)N=C(C(C)CC2CCCCC2)O1 (stereo unspecified)
inactive: [13] 95 % of control | [14] 93 % of control
